The source of these data is patent publication US9676820B2, “Method for inhibiting proliferation of high LIX1L-expressing tumor cell, and tumor cell proliferation-inhibiting peptide” (National University Corporation Hamamatsu University School …, priority 2013, dated 2017).

Data set [1] has as its system OCUM-1 strain. In words: Viable cell counts (Trypan blue staining), OCUM-1 strain. The data set is classed as cell-based. Particulars: shRNA 2.5 μg/well, vs untreated. Here is the method:
(§1) Specifically, cells plated such that the density thereof became 1×10^4 cells/3.5 cm well for one plate (6 wells/plate) for each cell strain were cultured for one night in a culture solution having the same composition as those of the culture solutions described in the reference examples. After culturing of 1 well out of the 6 wells was completed, Trypan blue staining was performed on the 1 well, and viable cell counts were counted. The remaining 5 wells were cultured after exchanging the culture solution with a liquid mixture of a Lipofectamine (registered trademark) reagent (12.5 μL/well) and a culture solution (2 mL/well) of which the shRNA concentration became 2.5 μg/well. Then, Trypan blue staining was performed on 1 well 24 hours after the exchange of a culture medium, 1 well 48 hours after the exchange of a culture medium, and the remaining 1 well 72 hours after the exchange of a culture medium, and the viable cell counts were counted. As a control, the viable cell counts were measured (untreated) by performing the culturing similarly to the above except that a culture medium was exchanged with a culture solution to which no shRNA was added.

Data set [2] relates to LIX1L genes. Description: RT-PCR of LIX1L gene expression after shRNA treatment. The data set is classed as cell-based, human. Particulars: HL-60, K562, KATO-III and OCUM-1 strains; shRNA 2.5 μg/well; after 72 hours. As for the experimental part:
In the RT-PCR, first, RNA was extracted and purified from the collected cells using RNeasy Mini Kit (manufactured by QIAGEN). The concentration of total RNA was measured using a spectrophotometer. A reverse transcription reaction was performed using First Strand cDNA Synthesis Kit (manufactured by Roche Life Science) for RT-PCR (AMV), for synthesizing cDNA, in 20 μL of a reaction solution containing 1 μg of total RNA and a random primer for 10 minutes at 25° C., subsequently for 45 minutes at 42° C., and then for 2 minutes at 95° C., to deactivate reverse transcriptase. In all PCRs, TaqMan (registered trademark) polymerase (manufactured by Life Technologies Ltd.) was used. […] The signal intensity of a band of LIX1L in an ethidium bromide staining image was measured using densitometry and a relative value of the signal intensity was calculated. In addition, in all quantitative PCR reactions, SYBR (registered trademark) Green I was used. Quantitative determination was performed in 25 μL of a reaction solution containing the synthesized cDNA and a LIX1L primer using an ABI PRISM 7700 Sequence detector (manufactured by Perkin-Elmer/Applied Biosystems). […]

In data set [3] the test system is KATO-III strain. Description: Viable cell counts (Trypan blue staining), KATO-III strain. The data set is classed as cell-based. Particulars: shRNA 2.5 μg/well, vs untreated. Here is the method: as §1
For data set [4], the system named is HL-60 strain. Description: Viable cell counts (Trypan blue staining), HL-60 strain. Format: cell-based. Particulars: vs untreated. As for the experimental part:
as §1
(§2) Specifically, the viable cell counts were measured after culturing the cells similarly to Example 1 except that a 5 μM culture solution containing a control peptide, a peptide 1, or a peptide 2 was used instead of the culture solution (2 mL/well) of which the shRNA concentration was 2.5 μg/well. The viable cell counts were measured (untreated) by performing the culturing similarly to Example 1 using a culture solution containing no peptide 2, as a control.

The subject of data set [5] is K562 strain. Description: Viable cell counts (Trypan blue staining), K562 strain. Particulars: vs untreated. The data set is classed as cell-based. As for the experimental part:
as §1, §2

In data set [6] the test system is OCUM-1 strain. In words: MTT assay, OCUM-1 strain. Format: cell-based. Conditions: peptide 0 μM to 100 μM, 72 hours. Here is the method: (§3) Specifically, first, cells plated in a 96-well microplate such that the density thereof became 5×10^3 cells/well were cultured for one night in a culture solution having the same composition as those in the reference examples. Thereafter, the culture solution was exchanged with 100 μL of a culture solution of which the concentration of peptides is 0 μM to 100 μM for culturing for 72 hours. After the culturing, an MTT-containing PBS solution was added to the culture solution, and the mixture was incubated for 4 hours. Then, formazan which was generated by putting 100 μL of isopropanol (containing 34 (v/v) % of hydrochloric acid) into each of the wells was dissolved. The absorbance of each of the wells of the microplate at 570 nm was measured using a microplate reader. As controls, culturing was performed in the same manner except that no peptide was added to the strains, an MTT assay was performed thereon, and the absorbance at 570 nm was measured (untreated).

Data set [7] deals with KATO-III strain. Description: MTT assay, KATO-III strain. Format: cell-based. Particulars: peptide 0 μM to 100 μM, 72 hours. Here is the method: as §3
A general note: Tetrazolium dyes change colour on reduction, which living cells bring about.

Data set [8] has as its system NUGC-4 strain. In words: MTT assay, NUGC-4 strain. Particulars: 72 hours, peptide concentrations up to 250 μM. The data set is classed as cell-based. Here is the method:
as §3, with “Thereafter, the culture solution was exchanged with 100 μL of a culture solution of which the concentration of peptides is 0 μM to 100 μM for culturing for 72 hours.” left out
(§4) In the method for measuring the viable cell counts, cells were cultured for 3 days similarly to Example 1 except that a 25 μM (10 μM for an HL-60 strain, a K562 strain, and a U937 strain) culture solution containing a control peptide or a peptide 1 was used, and the viable cell counts were measured. As a comparison, culturing was performed similarly to the above using a culture solution containing no peptide, and the viable cell counts were measured (untreated).
(§5) In addition, in the method for performing an MTT assay, cells were cultured for 72 hours similarly to Example 2 except that a peptide to be added to a strain was set to a control peptide or a peptide 1 at 25 μM (10 μM for an HL-60 strain, a K562 strain, and a U937 strain), an MTT assay was performed thereon, and the absorbance at 570 nm was measured. As a comparison, culturing was performed similarly to the above using a culture solution containing no peptide, and the MTT assay was performed thereon (untreated).
(§6) Specifically, the cells were cultured for 72 hours similarly to Example 2 except that a peptide to be added to a cell was set to a peptide 1, 2, 5, or 6, MTT assays were performed thereon, and the absorbance at 570 nm was measured. As a comparison, culturing was performed similarly to the above using a culture solution containing no peptide, and the MTT assay was performed thereon (untreated).
(§7) Specifically, the cells were cultured for 72 hours similarly to Example 2 except that peptides to be added to cell strains were set to peptides 7 to 14, MTT assays were performed thereon, and the absorbance at 570 nm was measured. […]
(§8) Specifically, the cells were cultured for 72 hours similarly to Example 2 except that a peptide to be added to a cell strain was set to a peptide 15 or 16, an MTT assay was performed thereon, and the absorbance at 570 nm was measured. […]

For data set [9], the system named is MKN45 strain. Description: MTT assay, MKN45 strain. Format: cell-based. Conditions: 72 hours, peptide concentrations up to 250 μM. As for the experimental part:
as §3, with “Thereafter, the culture solution was exchanged with 100 μL of a culture solution of which the concentration of peptides is 0 μM to 100 μM for culturing for 72 hours.” left out
as §4, §5, §6, §7, §8

The subject of data set [10] is RPMI8226 strain. In words: MTT assay, RPMI8226 strain. Conditions: peptide 0 μM to 100 μM, 72 hours. The data set is classed as cell-based. As for the experimental part: as §3
(§9) Specifically, the cells were cultured for 72 hours similarly to Example 2 except that a peptide to be added to a cell strain was set to peptide 1, 3, or 4, or a control peptide, an MTT assay was performed thereon, and the absorbance at 570 nm was measured.

For data set [11], the system named is 293 FLG/LIX1L. Description: MTT assay, 293 FLG/LIX1L cells. The data set is classed as cell-based. Conditions: 72 hours, peptide concentrations up to 250 μM. Here is the method:
as §3, with “Thereafter, the culture solution was exchanged with 100 μL of a culture solution of which the concentration of peptides is 0 μM to 100 μM for culturing for 72 hours.” left out
as §4, §5, §6, §7, §8

The subject of data set [12] is HL-60 strain. Description: MTT assay, HL-60 strain. Particulars: peptide 0 μM to 100 μM, 72 hours. Format: cell-based. Here is the method:
as §3, §4, §5

Data set [13] has as its system 293 FLG. In words: MTT assay, 293 FLG cells. The data set is classed as cell-based. Particulars: 72 hours, peptide concentrations up to 250 μM. As for the experimental part: as §3, with “Thereafter, the culture solution was exchanged with 100 μL of a culture solution of which the concentration of peptides is 0 μM to 100 μM for culturing for 72 hours.” left out
as §4, §5, §6, §7, §8

The test system of data set [14] is RPMI8226 strain. Description: Viable cell counts (Trypan blue staining), RPMI8226 strain. The data set is classed as cell-based. Particulars: 5 μM peptide, up to 72 hours, vs untreated. As for the experimental part: as §1, with “added. […]” for “added.”
In data set [15] the test system is K562 strain. Description: MTT assay, K562 strain. The data set is classed as cell-based. Conditions: 72 hours. Here is the method: as §3, §9, §4, §5, §6
Specifically, the cells were cultured for 72 hours similarly to Example 2 except that peptides to be added to cell strains were set to peptides 7 to 14, MTT assays were performed thereon, and the absorbance at 570 nm was measured. As a comparison, culturing was performed similarly to the above using a culture solution containing no peptide, and the MTT assay was performed thereon (untreated).
Specifically, the cells were cultured for 72 hours similarly to Example 2 except that a peptide to be added to a cell strain was set to a peptide 15 or 16, an MTT assay was performed thereon, and the absorbance at 570 nm was measured. As a comparison, culturing was performed similarly to the above using a culture solution containing no peptide, and the MTT assay was performed thereon (untreated).

[16] abbreviates: shRNA 2.5 μg/well, after 48 hours and 72 hours.
The mark [17] stands for this setting: shRNA 2.5 μg/well, until 24 hours.

As to “LIX1L shRNA #1: shRNA with respect to LIX1L genes; base sequence shown in FIG. 5A (DNA GAGGAGGTGTTGGCTCATTATTTTCAAGAGAAATAATGAGCCAACACCTCCTCTTTTTT)”, the viable cell counts result in data set [1] (after 48 hours and 72 hours) is recorded as “decreased more clearly than that of the untreated cells”; in data set [1] (until 24 hours), “no particular difference”; in data set [3] (after 48 hours and 72 hours), “decreased more clearly than that of the untreated cells”; in [3] (until 24 hours), “no particular difference”; in [4] (setting [16]), “decreased more clearly than that of the untreated cells”; in data set [4] (setting [17]), “no particular difference”. Also, the viable cell counts entry was “decreased more clearly than that of the untreated cells” in [5] (setting [16]) and “no particular difference” in [5] (setting [17]). The “expression of LIX1L genes (RT-PCR)” value in data set [2] is given as “hardly observed”.

For the substance “LIX1L shRNA #2: shRNA with respect to LIX1L genes; base sequence shown in FIG. 5B (DNA GAGTCCCGTGGTGCTGACTTAATTCAAGAGATTAAGTCAGCACCACGGGACTCTTTTTT)”, the viable cell counts entry in data set [1] (after 48 hours and 72 hours) was “decreased more clearly than that of the untreated cells”; in data set [1] (until 24 hours) it was “no particular difference”; in data set [3] (after 48 hours and 72 hours) it was “decreased more clearly than that of the untreated cells”; in [3] (until 24 hours), “no particular difference”; in data set [4] (setting [16]), “decreased more clearly than that of the untreated cells”; in data set [4] (setting [17]), “no particular difference”. Moreover, the values for the viable cell counts result in [5] (setting [16]) and in [5] (setting [17]) were “decreased more clearly than that of the untreated cells” and “no particular difference”, respectively. Moreover, the “expression of LIX1L genes (RT-PCR)” value in data set [2] is given as “hardly observed”.

Take “YGRKKRRQRRR-X-CYVTLPGGSC-NH2 (YGRKKRRQRRRXCYVTLPGGSC; ε-aminocaproic acid linker; C-terminal amide; peptide 2)”: the “absorbance at 570 nm (MTT assay), influence on cell proliferation” value in data set [6], in [7], in [10], in data set [12] and in data set [15] (peptide 0 μM to 100 μM) was “no particular change in the absorbance at 570 nm” in each case. Also, the “cell proliferation (MTT assay, absorbance at 570 nm)” value in [8], in data set [9], in [11], in [13] and in data set [15] (peptide concentrations up to 250 μM) was “not inhibited” each time. The viable cell counts result is recorded as “the same as those in an untreated case” in data set [4] (5 μM peptide, after 72 hours); “the same as those in an untreated case” in [14]; “the same as those in an untreated case” in data set [5] (5 μM peptide, after 72 hours).
